Data taken from PubChem BioAssay (NCI).
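Where inhibition never reached the appropriate level, the endpoint shown equals the highest concentration tested. Otherwise, values were interpolated linearly from a five-concentration, 48-hour dose response in 96-well plates. Abbreviation: GI50, concentration required for 50% inhibition of growth. TGI: concentration producing complete growth inhibition.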

Assays:
Assay in all cases: inhibition of tumour cell growth, NCI panel, 48 h
A498 renal = test system: A498 renal
ACHN renal = test system: ACHN renal
HCC-2998 colon = test system: HCC-2998 colon
LOX IMVI melanoma = test system: LOX IMVI melanoma
SK-MEL-28 melanoma = test system: SK-MEL-28 melanoma
SK-MEL-5 melanoma = test system: SK-MEL-5 melanoma
SK-OV-3 ovarian = test system: SK-OV-3 ovarian
U251 CNS = test system: U251 CNS

| Structure (SMILES) | GI50 (A498 renal) | TGI (A498 renal) | GI50 (ACHN renal) | TGI (ACHN renal) | GI50 (HCC-2998 colon) | TGI (HCC-2998 colon) | GI50 (LOX IMVI melanoma) | TGI (LOX IMVI melanoma) | GI50 (SK-MEL-28 melanoma) | TGI (SK-MEL-28 melanoma) | GI50 (SK-MEL-5 melanoma) | TGI (SK-MEL-5 melanoma) | GI50 (SK-OV-3 ovarian) | TGI (SK-OV-3 ovarian) | GI50 (U251 CNS) | TGI (U251 CNS) |
| --- | --- | --- | --- | --- | --- | --- | --- | --- | --- | --- | --- | --- | --- | --- | --- | --- |
| COc1ccc([C@H]2c3cc(OC)c(OC)cc3C=C(C=O)C2CO)cc1OC (some centres undefined) | 19 µM | > 100 µM | 7.53 µM | > 100 µM | 12.1 µM | 76.3 µM | 7.44 µM | > 100 µM | 6.62 µM | > 100 µM | 3.51 µM | > 100 µM | 4.23 µM | > 100 µM | 4.42 µM | > 100 µM |
| CCCCc1ccc2nc(NC(=O)OC)[nH]c2c1 | 0.04 µM | 0.996 µM | 0.077 µM | > 64.4 µM | 0.0966 µM | 3.4 µM | 0.0789 µM | > 55.9 µM | 0.087 µM | 35.3 µM | 0.035 µM | 2.57 µM | 0.0534 µM | > 47.1 µM | 0.0533 µM | 19.4 µM |
| O=C(CCCCCCc1nc2ccc(Br)cc2[nH]1)NO | 0.723 µM | 2.1 µM | 0.671 µM | 3.41 µM | 0.777 µM | 3.08 µM | 0.396 µM | 1.55 µM | 0.703 µM | 2.75 µM | 0.328 µM | 1.38 µM | 0.628 µM | 3.52 µM | 0.387 µM | 4.62 µM |
| N/C(=N\N=C\c1ccc2c(c1)OCO2)NO | – | 56.5 µM | – | 47.9 µM | – | > 100 µM | – | 82.5 µM | – | > 100 µM | – | 35.2 µM | – | > 100 µM | – | > 100 µM |
| CC/C(=C(\c1ccccc1)c1ccc(OCCN(C)C)cc1)c1ccccc1 | 2.3 µM | – | – | – | 0.878 µM | – | 1.49 µM | – | 1.6 µM | – | 0.852 µM | – | – | – | – | – |
| COc1cc(-c2cc(-c3ccc(N(C)C)cc3)nc(N3CCC(O)CC3)c2C#N)cc(OC)c1OC | 1.19 µM | 19.1 µM | 0.478 µM | > 100 µM | 0.54 µM | 6.48 µM | 0.0455 µM | 0.205 µM | 0.992 µM | 3.23 µM | 0.162 µM | 0.508 µM | 2.11 µM | 57.7 µM | 0.527 µM | 2.83 µM |
| CCOC(=O)c1cc2c(n1Cc1cccc(OC)c1)-c1oncc1CC2 | 0.156 µM | 3.39 µM | 2.66 µM | > 100 µM | 1.94 µM | 29.6 µM | 0.794 µM | > 100 µM | 0.97 µM | > 100 µM | 0.595 µM | 11.3 µM | 2.42 µM | > 100 µM | 0.909 µM | > 100 µM |
| Cn1cc(-c2ccc3cc(-c4ccc(CC(=O)Nc5cc(C(C)(C)C)nn5C)cc4)cnc3c2)cn1 | 0.0246 µM | 0.175 µM | 0.11 µM | > 100 µM | 0.443 µM | > 100 µM | 0.284 µM | > 100 µM | 0.41 µM | > 100 µM | 0.227 µM | 0.585 µM | 0.109 µM | > 100 µM | 0.236 µM | > 100 µM |
| C1=C[C@@H]2c3ccc4cnccc4c3NC[C@@H]2C1 | – | > 100 µM | – | > 100 µM | – | > 100 µM | – | – | – | > 100 µM | – | > 100 µM | – | > 100 µM | – | > 100 µM |
| Cc1ccc(CCC(=O)Nc2ncc(Cc3cc(Cl)ccc3Cl)s2)o1 | 0.171 µM | 0.801 µM | 0.665 µM | 4.85 µM | 0.312 µM | 6.41 µM | 0.221 µM | – | 1.54 µM | > 100 µM | 0.0804 µM | 5.96 µM | 0.399 µM | > 100 µM | 0.202 µM | 3.39 µM |
| COc1cc[c]([Hg][Cl])cc1 | 17.6 µM | 31.5 µM | 1.81 µM | 3.47 µM | 13.5 µM | 27.8 µM | 1.42 µM | 2.74 µM | 1.65 µM | 3.36 µM | 2.71 µM | 11.1 µM | 14.2 µM | 27.3 µM | 1.82 µM | 3.51 µM |
| COc1c2occc2c(OC)c2c(=O)c(S(=O)(=O)NC(=O)Nc3ccc(Cl)cc3)coc12 | – | > 10 µM | – | > 10 µM | – | > 10 µM | – | > 10 µM | – | > 10 µM | – | > 10 µM | – | > 10 µM | – | > 10 µM |
| CCN1CCC(C(=O)Nc2n[nH]c3nnc(-c4cccc(F)c4F)cc23)CC1 | 0.543 µM | > 6.6 µM | 9.68 µM | > 25 µM | 16 µM | > 25 µM | 5.59 µM | > 25 µM | 8.35 µM | > 18.4 µM | 1.62 µM | 7.46 µM | 2.33 µM | 23.4 µM | 6.17 µM | > 25 µM |
| COc1ccc(/C=C2/SC(=Nc3c(C)nn(-c4ccccc4)c3N)NC2=O)cc1 | 1.07 µM | 2.79 µM | 5.29 µM | 52.4 µM | 6.87 µM | 20.6 µM | 3.88 µM | 15.8 µM | 11.6 µM | 50.5 µM | 3.23 µM | 10.5 µM | 3.65 µM | 25.3 µM | 4.75 µM | 34.7 µM |
| COc1ccc(CCNc2nc3ccccc3c3[nH]c4ccccc4c23)cc1OC | 2.75 µM | 9.48 µM | 3.91 µM | 17.1 µM | 1.6 µM | 3.1 µM | 2.28 µM | 5.38 µM | 1.71 µM | 3.21 µM | 1.8 µM | 3.21 µM | 19.9 µM | 34.6 µM | 2.97 µM | 10.3 µM |
| CCN(CC)CCn1c(=N)n(CC(O)c2ccc(Cl)c(Cl)c2)c2ccccc21 (centres undefined) | 3.07 µM | 15.6 µM | 11.9 µM | 24.4 µM | 2.34 µM | 5.3 µM | 6.14 µM | 20.3 µM | 2.05 µM | 4.34 µM | 1.73 µM | 3.15 µM | 11.9 µM | 24.1 µM | 2.82 µM | 9.04 µM |
